The record followed here is BindingDB's records for doi:10.1021/jm00179a007 (1980).

The nature of the test: In vitro inhibitory potency was measured against phenylethanolamine N-methyl-transferase.

The structures appear in SMILES notation. pIC50: −log10 of the molar value.

In turn, `NCc1cccc(Cl)c1` [(3-chlorophenyl)methanamine] gave a pIC50 of 5.05. Consider `CC(N)Cc1ccc(Cl)cc1` (configuration not stated) [para-chloroamphetamine], for which the negative logarithm of the IC50 (pIC50) is 3.52.
